Measurements from patent US20260262643A1, “HERBICIDAL BENZOXAZINES” (FMC CORPORATION, priority 2022, published 2026).

Legend:
horseweed = test: Test C postemergence; format: in vivo, Erigeron canadensis; settings: 10 days
How it was run: (§1)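 Visual injury score, 0–100 (100 = complete control), taken 10 days after treatment relative to untreated controls. Pre: directed spray onto soil over sown seeds. Post: foliar spray at one- to two-leaf stage, 2–10 cm. Solvent/surfactant formulation; loam–sand soil; greenhouse.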

barnyardgrass [1] = test: Test C preemergence; format: in vivo, Echinochloa crusgalli; settings: 0 to 100 scale (0 no effect, 100 complete control); for Plant response rating, Barnyardgrass: Preemergence, 500 g ai/ha, visual rating after 10 days; for Barnyardgrass plant response rating: Test C, preemergence, 125 g ai/ha
How it was run: as §1

pigweed, palmer [2] = test: Test C postemergence; format: in vivo, Amaranthus palmeri; settings: 10 days
How it was run: as §1

soybean [3] = test: Test C postemergence; format: in vivo, Glycine max; settings: 10 days
How it was run: as §1

wheat [4] = test: Test C preemergence; format: in vivo, Triticum aestivum; settings: 0 to 100 scale (0 no effect, 100 complete control); for Wheat plant response rating: preemergence
How it was run: as §1

oat, wild [5] = test: Test C preemergence; format: in vivo, Avena fatua; settings: 0 to 100 scale (0 no effect, 100 complete control); for Oat, Wild plant response rating: preemergence
How it was run: as §1

ducksalad = test: Test D flooded paddy test; format: in vivo, Heteranthera limosa; settings: 250 g ai/ha, applied to paddy water, visual rating after 13 to 14 days, scale 0 to 100 (0 no effect, 100 complete control)
How it was run: (§2)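 2-leaf plants; flood 3 cm above soil; compound dosed into paddy water; greenhouse 13–14 d; visual rating vs controls, 0–100 (100 = complete control); dash = not tested.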

sedge, umbrella = test: Test D flooded paddy test; format: in vivo, Cyperus difformis; settings: 250 g ai/ha, applied to paddy water, visual rating after 13 to 14 days, scale 0 to 100 (0 no effect, 100 complete control)
How it was run: as §2

wheat [6] = test: Test C postemergence; format: in vivo, Triticum aestivum; settings: 10 days
How it was run: as §1

corn [7] = test: Test C preemergence; format: in vivo, Zea mays; settings: 0 to 100 scale (0 no effect, 100 complete control); for Corn plant response rating: preemergence
How it was run: as §1

blackgrass [8] = test: Test C preemergence; format: in vivo, Alopecurus myosuroides; settings: 0 to 100 scale (0 no effect, 100 complete control); for Plant response rating, Blackgrass: Preemergence, 500 g ai/ha, visual rating after 10 days; for Blackgrass plant response rating: Test C, preemergence, 125 g ai/ha
How it was run: as §1

kochia [9] = test: Test C postemergence; format: in vivo, Bassia scoparia; settings: 10 days
How it was run: as §1

blackgrass [10] = test: Test C postemergence; format: in vivo, Alopecurus myosuroides; settings: 10 days
How it was run: as §1

ryegrass, Italian [11] = test: Test C preemergence; format: in vivo, Lolium multiflorum; settings: 0 to 100 scale (0 no effect, 100 complete control); for Ryegrass, Italian plant response rating: preemergence
How it was run: as §1

corn [12] = test: Test C postemergence; format: in vivo, Zea mays; settings: 10 days
How it was run: as §1

ragweed [13] = test: Test C postemergence; format: in vivo, Ambrosia artemisiifolia; settings: 10 days
How it was run: as §1

green foxtail [14] = test: Test C postemergence; format: in vivo, Setaria viridis; settings: 10 days
How it was run: as §1

oat, wild [15] = test: Test C postemergence; format: in vivo, Avena fatua; settings: 10 days
How it was run: as §1

soybean [16] = test: Test C preemergence; format: in vivo, Glycine max; settings: 0 to 100 scale (0 no effect, 100 complete control); for Soybean plant response rating: preemergence
How it was run: as §1

rice = test: Test D flooded paddy test; format: in vivo, Oryza sativa; settings: 250 g ai/ha, applied to paddy water, visual rating after 13 to 14 days, scale 0 to 100 (0 no effect, 100 complete control)
How it was run: as §2

ryegrass, Italian [17] = test: Test C postemergence; format: in vivo, Lolium multiflorum; settings: 10 days
How it was run: as §1

barnyardgrass [18] = test: Test C postemergence; format: in vivo, Echinochloa crusgalli; settings: 10 days
How it was run: as §1

barnyardgrass [19] = test: Test D flooded paddy test; format: in vivo, Echinochloa crus-galli; settings: 250 g ai/ha, applied to paddy water, visual rating after 13 to 14 days, scale 0 to 100 (0 no effect, 100 complete control)
How it was run: as §2

kochia [20] = test: Test C preemergence; format: in vivo, Bassia scoparia; settings: 0 to 100 scale (0 no effect, 100 complete control); for Kochia plant response rating: preemergence
How it was run: as §1

galium = test: Test C postemergence; format: in vivo, Galium aparine; settings: 10 days
How it was run: as §1

pigweed, palmer [21] = test: Test C preemergence; format: in vivo, Amaranthus palmeri; settings: 0 to 100 scale (0 no effect, 100 complete control); for Pigweed, Palmer plant response rating: preemergence
How it was run: as §1

ragweed [22] = test: Test C preemergence; format: in vivo, Ambrosia artemisiifolia; settings: 0 to 100 scale (0 no effect, 100 complete control); for Ragweed plant response rating: preemergence
How it was run: as §1

green foxtail [23] = test: Test C preemergence; format: in vivo, Setaria viridis; settings: 0 to 100 scale (0 no effect, 100 complete control); for Foxtail, Green plant response rating: preemergence
How it was run: as §1

[24] = 125 g ai/ha, postemergence, 0 to 100 scale, 0 no effect, 100 complete control
[25] = Postemergence, 500 g ai/ha, visual 0 to 100 scale (0 no effect, 100 complete control)
[26] = Preemergence, 500 g ai/ha, visual rating after 10 days

COc1ccc(-n2cnc(C(C)C)n2)cc1C(=O)N1C[C@H](C)Oc2c(F)cccc21 [Compound 269]
100: Plant response rating, Barnyardgrass (barnyardgrass [1]) | Barnyardgrass plant response rating (barnyardgrass [1]) | Plant response rating, Soybean (soybean [3]; [24]) | Wheat plant response rating (wheat [4]; 500 g ai/ha) | Wheat plant response rating (wheat [4]; Test C, 125 g ai/ha) | Plant response rating, Ducksalad (Flood) (ducksalad) | Ryegrass, Italian plant response rating (ryegrass, Italian [11]; 500 g ai/ha) | Ryegrass, Italian plant response rating (ryegrass, Italian [11]; Test C, 125 g ai/ha) | Plant response rating, Corn (corn [12]; [25]) | Plant response rating, Ryegrass, Italian (ryegrass, Italian [17]; [24]) | Plant response rating, Barnyardgrass (barnyardgrass [18]; [25]) | Kochia plant response rating (kochia [20]; 500 g ai/ha) | Plant response rating, Galium (galium; [25]) | Pigweed, Palmer plant response rating (pigweed, palmer [21]; 500 g ai/ha) | Pigweed, Palmer plant response rating (pigweed, palmer [21]; Test C, 125 g ai/ha) | Ragweed plant response rating (ragweed [22]; 500 g ai/ha) | Ragweed plant response rating (ragweed [22]; Test C, 125 g ai/ha) | Foxtail, Green plant response rating (green foxtail [23]; 500 g ai/ha) | Foxtail, Green plant response rating (green foxtail [23]; Test C, 125 g ai/ha)
80: Plant response rating, Wheat (wheat [6]; [24]) | Plant response rating, Kochia (kochia [9]; [24]) | Plant response rating, Blackgrass (blackgrass [10]; [24]) | Plant response rating, Corn (corn [12]; [24]) | Plant response rating, Oat, Wild (oat, wild [15]; [24]) | Plant response rating, Barnyardgrass (barnyardgrass [18]; [24])
20: Plant response rating, Horseweed (horseweed; [24]) | Corn plant response rating (corn [7]; Test C, 125 g ai/ha)
90: Plant response rating, Horseweed (horseweed; [25]) | Plant response rating, Pigweed, Palmer (pigweed, palmer [2]; [24]) | Oat, Wild plant response rating (oat, wild [5]; 500 g ai/ha) | Corn plant response rating (corn [7]; 500 g ai/ha) | Plant response rating, Blackgrass (blackgrass [8]) | Blackgrass plant response rating (blackgrass [8]) | Plant response rating, Blackgrass (blackgrass [10]; [25]) | Plant response rating, Foxtail, Green (green foxtail [14]; [24]) | Plant response rating, Foxtail, Green (green foxtail [14]; [25]) | Soybean plant response rating (soybean [16]; 500 g ai/ha) | Soybean plant response rating (soybean [16]; Test C, 125 g ai/ha) | Kochia plant response rating (kochia [20]; Test C, 125 g ai/ha) | Plant response rating, Galium (galium; [24])
60: Oat, Wild plant response rating (oat, wild [5]; Test C, 125 g ai/ha)
70: Plant response rating, Ragweed (ragweed [13]; [24])
10: Plant response rating, Rice (Flood) (rice)
45: Plant response rating, Barnyardgrass (Flood) (barnyardgrass [19])
98: Plant response rating, Sedge, Umbrella (Flood) (sedge, umbrella)

CCc1ncn(-c2ccc(C)c(C(=O)N3C[C@H](COC)Oc4c(Cl)cccc43)c2)n1 [Compound 265]
100: Plant response rating, Pigweed, Palmer (pigweed, palmer [2]; [25]) | Plant response rating, Soybean (soybean [3]; [24]) | Plant response rating, Soybean (soybean [3]; [25]) | Plant response rating, Kochia (kochia [9]; [25]) | Plant response rating, Barnyardgrass (barnyardgrass [18]; [25]) | Plant response rating, Galium (galium; [24]) | Plant response rating, Galium (galium; [25]) | Plant response rating, Pigweed, Palmer (pigweed, palmer [21]; [26]) | Pigweed, Palmer plant response rating (pigweed, palmer [21]; Test C, 125 g ai/ha) | Plant response rating, Foxtail, Green (green foxtail [23]; [26]) | Foxtail, Green plant response rating (green foxtail [23]; Test C, 125 g ai/ha)
30: Corn plant response rating (corn [7]; Test C, 125 g ai/ha) | Plant response rating, Oat, Wild (oat, wild [15]; [24]) | Plant response rating, Barnyardgrass (Flood) (barnyardgrass [19])
80: Plant response rating, Wheat (wheat [4]; [26]) | Ryegrass, Italian plant response rating (ryegrass, Italian [11]; Test C, 125 g ai/ha) | Plant response rating, Ragweed (ragweed [13]; [24]) | Plant response rating, Oat, Wild (oat, wild [15]; [25]) | Plant response rating, Ryegrass, Italian (ryegrass, Italian [17]; [24]) | Kochia plant response rating (kochia [20]; Test C, 125 g ai/ha)
50: Ragweed plant response rating (ragweed [22]; Test C, 125 g ai/ha)
70: Plant response rating, Pigweed, Palmer (pigweed, palmer [2]; [24]) | Wheat plant response rating (wheat [4]; Test C, 125 g ai/ha) | Plant response rating, Wheat (wheat [6]; [25]) | Blackgrass plant response rating (blackgrass [8]) | Plant response rating, Corn (corn [12]; [25]) | Soybean plant response rating (soybean [16]; Test C, 125 g ai/ha) | Plant response rating, Barnyardgrass (barnyardgrass [18]; [24]) | Plant response rating, Ragweed (ragweed [22]; [26])
40: Plant response rating, Horseweed (horseweed; [24]) | Plant response rating, Wheat (wheat [6]; [24])
25: Plant response rating, Rice (Flood) (rice)
60: Plant response rating, Horseweed (horseweed; [25]) | Oat, Wild plant response rating (oat, wild [5]; Test C, 125 g ai/ha) | Plant response rating, Corn (corn [12]; [24])
75: Plant response rating, Ducksalad (Flood) (ducksalad)
90: Plant response rating, Barnyardgrass (barnyardgrass [1]) | Barnyardgrass plant response rating (barnyardgrass [1]) | Plant response rating, Oat, Wild (oat, wild [5]; [26]) | Plant response rating, Sedge, Umbrella (Flood) (sedge, umbrella) | Plant response rating, Corn (corn [7]; [26]) | Plant response rating, Blackgrass (blackgrass [8]) | Plant response rating, Kochia (kochia [9]; [24]) | Plant response rating, Blackgrass (blackgrass [10]; [24]) | Plant response rating, Blackgrass (blackgrass [10]; [25]) | Plant response rating, Ryegrass, Italian (ryegrass, Italian [11]; [26]) | Plant response rating, Ragweed (ragweed [13]; [25]) | Plant response rating, Foxtail, Green (green foxtail [14]; [24]) | Plant response rating, Foxtail, Green (green foxtail [14]; [25]) | Plant response rating, Soybean (soybean [16]; [26]) | Plant response rating, Ryegrass, Italian (ryegrass, Italian [17]; [25]) | Plant response rating, Kochia (kochia [20]; [26])
